Data taken from the supplement of paper PMC13380429.

How the values were obtained:
Details in all cases: 72 h
Calu-3 [1] = experiment: relative viability EC50 (midpoint between 100% and the lowest measured viability); higher = less toxic
Vero E6 [2] = experiment: as above
HepG2 [3] = experiment: as above
U2OS [4] = experiment: as above
Caco-2 [5] = experiment: as above
Calu-3 [6] = experiment: drug sensitivity score (DSS) for viability; higher = more toxic; extreme values may be limits of the assay
Vero E6 [7] = experiment: as above
HepG2 [8] = experiment: as above
U2OS [9] = experiment: as above
Caco-2 [10] = experiment: as above
Calu-3 [11] = experiment: cell viability relative to DMSO; higher = less toxic
Vero E6 [12] = experiment: as above
HepG2 [13] = experiment: as above
U2OS [14] = experiment: as above
Caco-2 [15] = experiment: as above

SMILES | relative viability EC50 (Calu-3 [1]) | relative viability EC50 (Vero E6 [2]) | relative viability EC50 (HepG2 [3]) | relative viability EC50 (U2OS [4]) | relative viability EC50 (Caco-2 [5]) | drug sensitivity score (Calu-3 [6]) | drug sensitivity score (Vero E6 [7]) | drug sensitivity score (HepG2 [8]) | drug sensitivity score (U2OS [9]) | drug sensitivity score (Caco-2 [10]) | cell viability (Calu-3 [11]; 1 nM) | cell viability (Calu-3 [11]; 10 nM) | cell viability (Calu-3 [11]; 100 nM) | cell viability (Calu-3 [11]; 1000 nM) | cell viability (Calu-3 [11]; 10000 nM) | cell viability (Vero E6 [12]; 1 nM) | cell viability (Vero E6 [12]; 10 nM) | cell viability (Vero E6 [12]; 100 nM) | cell viability (Vero E6 [12]; 1000 nM) | cell viability (Vero E6 [12]; 10000 nM) | cell viability (HepG2 [13]; 1 nM) | cell viability (HepG2 [13]; 10 nM) | cell viability (HepG2 [13]; 100 nM) | cell viability (HepG2 [13]; 1000 nM) | cell viability (HepG2 [13]; 10000 nM) | cell viability (U2OS [14]; 1 nM) | cell viability (U2OS [14]; 10 nM) | cell viability (U2OS [14]; 100 nM) | cell viability (U2OS [14]; 1000 nM) | cell viability (U2OS [14]; 10000 nM) | cell viability (Caco-2 [15]; 1 nM) | cell viability (Caco-2 [15]; 10 nM) | cell viability (Caco-2 [15]; 100 nM) | cell viability (Caco-2 [15]; 1000 nM) | cell viability (Caco-2 [15]; 10000 nM)
CCCCCCc1ccc(O)cc1O [hexylresorcinol] | > 10 µM | > 10 µM | > 10 µM | > 10 µM | > 10 µM | 0 | 0 | 0 | 0 | 0 | 91% | 109% | 104% | 97.8% | 99.7% | 102% | 101% | 106% | 103% | 96.7% | 105% | 98.7% | 107% | 93.7% | 94% | 98.3% | 101% | 97.5% | 104% | 99.9% | 95.9% | 98.5% | 98.4% | 100% | 94.9%
c1cc2c(cc1[C@H]1OC[C@H]3[C@@H]1CO[C@@H]3c1ccc3c(c1)OCO3)OCO2 [sesamin] | > 10 µM | > 10 µM | > 10 µM | > 10 µM | > 10 µM | 0 | 0 | 0 | 0 | 0 | 109% | 103% | 102% | 98.1% | 90.1% | 99.8% | 103% | 94.6% | 99.3% | 99.4% | 105% | 107% | 102% | 91.1% | 106% | 96.9% | 100% | 102% | 104% | 99.3% | 93.7% | 95% | 98.4% | 95.7% | 89.2%
O=C(O)c1cc([N+](=O)[O-])ccc1NCCCc1ccccc1 [NPPB] | > 10 µM | > 10 µM | > 10 µM | > 10 µM | > 10 µM | 0 | 0 | 0 | 0 | 0 | 99.7% | 105% | 101% | 114% | 96.2% | 94.9% | 98.3% | 90.5% | 94% | 105% | 91.7% | 101% | 97.5% | 102% | 99.9% | 101% | 98.3% | 100% | 96.4% | 94.8% | 102% | 87.7% | 93.5% | 95.5% | 94.5%
Clc1cccc(SC2CCNCC2)n1 [anpirtoline] | > 10 µM | > 10 µM | > 10 µM | > 10 µM | > 10 µM | 0 | 0 | 0 | 0 | 0 | 94.9% | 98.6% | 93.5% | 98.3% | 114% | 102% | 104% | 99.1% | 98.4% | 96.5% | 109% | 102% | 107% | 104% | 97.9% | 99.3% | 96.5% | 100% | 96.1% | 100% | 93.1% | 93.5% | 101% | 100% | 96.8%
CCCCCn1cc(C(=O)NC23CC4CC(CC(C4)C2)C3)c(=O)c2cc(-c3ccccc3)ccc21 [COR-170] | > 10 µM | > 10 µM | > 10 µM | > 10 µM | > 10 µM | 0 | 0 | 0 | 0 | 0 | 105% | 89.2% | 104% | 98.2% | 97% | 100% | 97.7% | 103% | 106% | 94.8% | 103% | 93.6% | 91% | 105% | 92.1% | 96.2% | 99.9% | 98.3% | 94.7% | 99.9% | 90.9% | 103% | 100% | 100% | 98.3%
Oc1ccc(-c2c(-c3ccccc3)nn3c(C(F)(F)F)cc(C(F)(F)F)nc23)cc1 [PHTPP] | > 10 µM | > 10 µM | > 10 µM | > 10 µM | > 10 µM | 0 | 0 | 0 | 0 | 0 | 98.5% | 94.6% | 97.4% | 91.3% | 113% | 105% | 109% | 95.8% | 105% | 96.5% | 104% | 95.5% | 83.4% | 103% | 88.7% | 99.5% | 96.5% | 102% | 99.2% | 100% | 104% | 100% | 99.1% | 102% | 95.9%
O=C(O)c1cc2cccc([N+](=O)[O-])c2[nH]1 | > 10 µM | > 10 µM | > 10 µM | > 10 µM | > 10 µM | 0 | 0 | 0 | 0 | 0 | 90.8% | 101% | 100% | 99.5% | 111% | 97.2% | 99.2% | 93.6% | 97.6% | 110% | 102% | 99.2% | 98.8% | 112% | 112% | 100% | 97.9% | 101% | 102% | 104% | 98% | 91.4% | 88.4% | 101% | 116%
OCCCNc1ccccc1 [3-anilinopropan-1-ol] | > 10 µM | > 10 µM | > 10 µM | > 10 µM | > 10 µM | 0 | 0 | 0 | 0 | 0 | 106% | 104% | 99.6% | 97% | 115% | 100% | 96.1% | 107% | 94.4% | 97.9% | 103% | 101% | 95.6% | 103% | 94.9% | 99.6% | 106% | 97.8% | 102% | 98.7% | 101% | 91.8% | 93.7% | 93.3% | 95.3%
O=C(NCCN1CCN(c2ncccn2)CC1)C12CC3CC(CC(C3)C1)C2 [adatanserin] | > 10 µM | > 10 µM | > 10 µM | > 10 µM | > 10 µM | 0 | 0 | 0.9 | 0 | 0 | 101% | 96.5% | 107% | 86.8% | 101% | 99.5% | 97.9% | 101% | 99.4% | 104% | 102% | 98% | 88.5% | 90.7% | 90.9% | 94.9% | 94.2% | 97.8% | 96.9% | 97.4% | 92% | 114% | 94.7% | 102% | 88.5%
CN1CCc2cc(Cl)c(O)cc2[C@@H](c2ccccc2)C1 | > 10 µM | > 10 µM | > 10 µM | > 10 µM | > 10 µM | 0 | 0 | 0 | 0 | 0 | 93.3% | 103% | 145% | 103% | 97.9% | 95.6% | 95% | 93.5% | 85.1% | 102% | 98.2% | 96.3% | 97.2% | 97.4% | 89.9% | 97.5% | 100% | 97.8% | 102% | 101% | 96.3% | 93.2% | 96.3% | 100% | 99.1%
CCCN(CCC)[C@H]1CCc2cccc(O)c2C1 [8-hydroxy-DPAT] | > 10 µM | > 10 µM | > 10 µM | > 10 µM | > 10 µM | 0 | 0 | 0 | 0 | 0 | 99.2% | 105% | 97.4% | 101% | 102% | 97% | 94.5% | 99.2% | 89.3% | 104% | 102% | 102% | 93.6% | 109% | 92.2% | 96.9% | 98% | 99.1% | 102% | 99.9% | 101% | 101% | 98% | 98.8% | 101%
CNC[C@@H]1CC[C@@H](N)[C@@H](O[C@H]2[C@H](O)[C@@H](O[C@H]3OC[C@](C)(O)[C@H](NC)[C@H]3O)[C@H](N)C[C@@H]2N)O1 [micronomicin] | > 10 µM | > 10 µM | > 10 µM | > 10 µM | > 10 µM | 0 | 0 | 0 | 0 | 0 | 105% | 113% | 105% | 98% | 95.5% | 98.9% | 99.8% | 98.6% | 99.4% | 99.4% | 93.8% | 96.8% | 105% | 100% | 106% | 96% | 104% | 99.1% | 102% | 99.3% | 98.4% | 96.1% | 104% | 96% | 97.5%
CC(=O)OCC(=O)[C@@]1(O)CC[C@H]2[C@@H]3CCC4=CC(=O)C=C[C@]4(C)[C@@]3(F)[C@@H](O)C[C@@]21C [isoflupredone-acetate] | > 10 µM | > 10 µM | > 10 µM | > 10 µM | > 10 µM | 0 | 0 | 0 | 0 | 0 | 92.6% | 97.2% | 82.4% | 93.2% | 107% | 100% | 101% | 96% | 94.5% | 107% | 102% | 92.3% | 102% | 99.2% | 104% | 96.4% | 98.2% | 94.5% | 99.4% | 105% | 104% | 96.9% | 97% | 103% | 102%
CC(C)c1cc(CNc2nc(Nc3cc(C4CC4)[nH]n3)cc(N3CCN(C)CC3)n2)on1 [XL228] | 0.593 µM | 1.35 µM | 0.266 µM | 0.47 µM | 1.22 µM | 8.8 | 7.8 | 16.2 | 15.1 | 6.7 | 95.7% | 99.3% | 87.3% | 61.5% | 33.9% | 94% | 97.8% | 101% | 75.3% | 23% | 95.3% | 98.3% | 62.4% | 40.6% | 7.4% | 104% | 103% | 84.8% | 30% | 0% | 111% | 94.4% | 93% | 72.5% | 33.1%
